Legend:
[1] = biological target: T1, CCR5 receptors expressed in HEK-293 cells (Homo sapiens, UniProt P51681); assay: Intracellular calcium release, CCL5-stimulated CCR5 in HEK-293 cells; assay type: cell-based; settings: CCR5 expressing HEK cells stimulated by CCL5
T1 construct: expressed in transfected cells; host or cells: HEK-293 cells, transient transfection with Lipofectamine 2000
Protocol: Briefly, HEK-293 cells were cultured at 37° C. in Dulbelcco's modified Eagle's medium supplemented with 10% fetal bovine serum and 1% Penicillin/Streptomycin. Then 100 mm^2 were transiently transfected with CCR5 receptor cDNA using OptiMEM-1 medium (Invitrogen) and Lipofectamine 2000 (Invitrogen, Carlsbad, Calif.) reagent according to manufacturer's protocol (1:2 wt/vol ratio for DNA:Lipofectamine; 16 μg DNA: 32 μl Lipofectamine). The cells were seeded into 96 well plates (half-area; Corning) at 20,000 cells/well after 24 hours and assayed 48 hours after transfection using the FLIPR calcium kit (Molecular Devices) in a Flexstation-III apparatus (Molecular Devices). Cells were incubated with the calcium dye for 45 minutes at 37° C. before the antagonists were added to each well at the concentration listed, and incubated at 37° C. for 15 minutes. The control agonist, CCL5 (RANTES), was added at a concentration that elicited an 80% maximal response in untreated cells (100 nM) to each well and the calcium response measured with and without antagonists for 90 seconds. The change in RFU was calculated by subtracting the minimum relative fluorescent unit (RFU) from the maximum RFU response, replicated 6 times and averaged. Each experiment was repeated at least 3 times and the mean±SEM was plotted for each treatment group. Plates were 80-90% confluent, cells

control mice = assay: Radiant heat tail-flick antinociception, control (LPS-untreated) mice; assay type: in vivo; settings: control mice
Text: Pain is a hallmark of many inflammatory conditions.

LPS-pretreated mice = assay: animal or person
Protocol: Male ICR-CD1 mice (17-25 g; Harlan, Madison, Wis.), C3H mice (15-20 g, National Cancer Institute, Bethesda, Md.) or TLR4 knock-out mice (gift from Dr. Sabita Roy) were housed, 4 to a small box in a temperature- and humidity-controlled environment with unlimited access to food and water. They were maintained on a 12 h light/dark cycle. All experiments were approved by the Institutional Animal Care and Use Committee of the University of Minnesota (Minneapolis, Minn.).
The tail flick assay is used to test for antinociception described by D'Amour and Smith^64 and modified by Dewey et. al.^65 Mice are held gently in one hand with the tail positioned in the apparatus (Tail Flick Analgesia Meter, Columbus Instruments, Columbus, Ohio) for radiant heat stimulus. The tail-flick response is elicited by applying radiant heat to the dorsal side of the tail. The test latency is measured before drug treatment (control) and again after the drug treatment (test) at the peak time of the compound, a 10 s maximum cut-off time is used to prevent damage to the tail. Antinociception is quantified according to the method of Harris and Pierson^66 as the percent maximal possible effect (% MPE) which is calculated as: % MPE=(Test−Control/10−Control)×100
A minimum of three groups of eight to ten mice are used for each dose response curve, and each mouse is used only once.
The compounds were tested for acute tolerance by comparing the ED80-90 dose measured on day 1 to the same dose administered and retested 24 hours later on the same mouse.
Compounds were dissolved in 5% DMSO and diluted to less than 1% DMSO for injection. These compounds were administered in a volume of 5-μl either i.c.v (Haley and McCormick) or intrathecal (i.t.) as described for mice by Hylden and Wilcox^67 in conscious mice. […] Time course studies, including the times 5, 10, 20, 30 and 60 minutes were used to determine the peak antinociception.
Pain is a hallmark of many inflammatory conditions. […] Antinociception was evaluated using the radiant heat-induced tailflick assay. Morphine was employed as a standard opioid agonist under these conditions.

[2] = tested on: CFA-induced mechanical hyperalgesia mouse model; assay: Complete Freund's Adjuvant (CFA) mechanical hyperalgesia, electronic von Frey; assay type: in vivo, mice; settings: i.t.
Protocol: Before injection of CFA baseline withdrawal thresholds (g) were obtained from a mechanical stimulation using an electronic von Frey anesthesiometer (IITC Life Sciences, Woodland Hills, USA) by applying an accurate force on both left and right hind paw. (2,3) The left hindpaws were then injected (intraplantar) with a 50% solution of CFA (10 μg, Sigma-Aldrich) in water while the mice are under isoflurane anesthesia (10). Twenty-four hours later the withdrawal threshold (g) was again measured prior to and after the test compound i.t. at 10, 20, 30 and 60 minutes to determine the peak time and subsequent ED50. % MPE was calculated ((Time-point withdrawal threshold with drug−CFA withdrawal threshold)/(Day 0 withdrawal threshold−CFA withdrawal threshold))*100 (Wade, C. L., et al., PLoS One 2013, 8, e79239/1-e79239/11, 11 pp; Martinov, T., et al., J Vis Exp 2013, e51212; Sorge, R. E., et al., J. Neurosci. 2011, 31, 15450-15454).

[3] = tested on: mice with cisplatin-induced hyperalgesia; assay: Cisplatin-induced peripheral neuropathy, mechanical hyperalgesia (von Frey); assay type: in vivo, C3H/HeJ mice; settings: cisplatin model
Protocol: Adult male C3H/HeJ mice were tested for mechanical paw withdrawal responses on 2 consecutive days prior to treatment by determining the frequency of hind paw withdrawal evoked by a standard von Frey monofilament with a bending force of 3.9 mN applied to the plantar surface of the hind paws. Mice were then given 1 mg/kg of cisplatin intraperitoneal (i.p.) daily for 7 consecutive days and on day 14 post-injection, mechanical hyperalgesia was assessed. Compounds were administered intrathecally (i.t.) and i.p. weekly to determine peak time effects and ED50/80.

T1 sequence (P51681 whole entry): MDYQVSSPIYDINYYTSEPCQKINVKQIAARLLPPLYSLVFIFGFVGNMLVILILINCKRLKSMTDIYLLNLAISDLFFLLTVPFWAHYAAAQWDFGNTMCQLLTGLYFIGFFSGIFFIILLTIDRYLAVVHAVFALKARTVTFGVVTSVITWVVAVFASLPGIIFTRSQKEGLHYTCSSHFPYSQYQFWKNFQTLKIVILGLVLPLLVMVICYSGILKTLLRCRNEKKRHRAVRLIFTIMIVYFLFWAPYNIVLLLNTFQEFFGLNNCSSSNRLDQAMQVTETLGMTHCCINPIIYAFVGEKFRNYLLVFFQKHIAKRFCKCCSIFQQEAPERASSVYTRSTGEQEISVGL

Structure (SMILES) | inhibiting calcium release (compared with TAK-220) [1] | CONTROLS i.c.v./i.t. ratio (control mice) | CONTROLS ED50 (CI) i.c.v. (control mice; i.c.v., tail flick) | CONTROLS ED50 (CI) i.t. (control mice; i.t., tail flick) | LPS pretreated i.c.v./i.t. ratio (LPS-pretreated mice; LPS 1 mg/kg 24 hours i.p.) | LPS pretreated ED50 (CI) i.c.v. (LPS-pretreated mice; LPS 1 mg/kg 24 hours i.p., i.c.v., tail flick) | LPS pretreated ED50 (CI) i.t. (LPS-pretreated mice; LPS 1 mg/kg 24 hours i.p., i.t., tail flick) | ED50 values (95% CI) LPS (thermal) (LPS-pretreated mice; i.t., LPS thermal hyperalgesia model) | tolerance upon repeated administration (LPS-pretreated mice; i.t., LPS-pretreated mice) | ED50 values (95% CI) CFA (mechanical) [2] | ED50 (95% CI) i.p. ([3]; i.p.) | tolerance ([3]; i.p.) | tolerance ([3]; i.p., listed as morphine) | ED50 (95% CI) i.t. ([3]; i.t.) | tolerance ([3]; i.t.)
CNC(=O)COCC(=O)N1CCC(CC(=O)N(CCCN2CCC(Cc3ccc(C(N)=O)cc3)CC2)c2ccc(C)c(Cl)c2)CC1 [Compound 8c, N-(3-(4-(4-carbamoylbenzyl)piperidin-1-yl)propyl)-N-(3-chloro-4-methylphenyl)-1-(2-(2-(methylamino)-2-oxoethoxy)acetyl)piperidine-4-carboxyamide] | equally potent | – | – | – | – | – | – | – | – | – | – | – | – | – | –
CN1CC[C@]23c4c5ccc(O)c4O[C@H]2[C@@H](O)C=C[C@H]3[C@H]1C5 [Morphine, morphine, reference compound] | – | 11.1 | 301 pmol/mouse | 27.0 pmol/mouse | 8.60 | 301 pmol/mouse | 35.0 pmol/mouse | 35 pmol/mouse | exhibited tolerance | 15 pmol/mouse | 14.28 pmol/mouse | significant tolerance | exhibits 24 h tolerance | 27.44 pmol/mouse | significant tolerance

— patent publication US10464941B2, “Therapeutic compounds” (REGENTS OF THE UNIVERSITY OF MINNESOTA, priority 2015, dated 2019)
